# Measured values reported in ChEMBL document CHEMBL1201862, “PubChem BioAssay data set” (2004).
# Activity calls are given as the source filed them.
# Experiments:
# Cytochrome P450 2D6 = Cytochrome P450 2D6 (Homo sapiens, UniProt P10635);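 note: CYP2D6 member of a cytochrome P450 panel assay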
# [1] = luciferase reporter signal suppression in cells – H4 neuroglioma cells, luminescence, dose response (AID 1990); format: functional, cell-based
# [2] = Luminescence Cell-Based Dose Response HTS to Identify Inhibitors of 5'UTR Stem-Loop Driven Prion Protein mRNA Translation in H4 Neuroglioblastoma Cells. [Related pubchem assays: 1827 (Project Summary), 1813 (Primary HTS)]; format: functional
# [3] = alpha-synuclein stem-loop luciferase translation blockers – H4 neuroglioma cells, luminescence, confirmation (AID 1988); format: functional, cell-based
# Cytochrome P450 3A4 = Cytochrome P450 3A4 (Homo sapiens, UniProt P08684);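 note: CYP3A4 tested as one member of a cytochrome P450 panel screen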
# Sequence of Cytochrome P450 3A4 (P08684 whole entry): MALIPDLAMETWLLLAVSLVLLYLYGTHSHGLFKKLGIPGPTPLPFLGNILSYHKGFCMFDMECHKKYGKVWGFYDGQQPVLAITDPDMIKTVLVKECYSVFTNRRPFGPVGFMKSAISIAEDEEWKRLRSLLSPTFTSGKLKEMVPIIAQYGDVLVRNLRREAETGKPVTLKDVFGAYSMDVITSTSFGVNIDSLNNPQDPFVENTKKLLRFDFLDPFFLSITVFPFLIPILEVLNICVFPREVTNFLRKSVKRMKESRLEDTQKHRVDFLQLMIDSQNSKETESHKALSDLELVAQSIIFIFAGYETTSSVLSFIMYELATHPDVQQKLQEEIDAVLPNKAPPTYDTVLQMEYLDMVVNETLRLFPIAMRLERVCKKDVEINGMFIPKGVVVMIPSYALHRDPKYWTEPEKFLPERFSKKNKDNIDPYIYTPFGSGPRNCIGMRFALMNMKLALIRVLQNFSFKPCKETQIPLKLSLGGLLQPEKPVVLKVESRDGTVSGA
# [4] = system: Streptococcus sp. 'group A'; experiment: Streptococcus pyogenes SK(-)GAS viability under kanamycin – luminescence, BacTiterGlo, confirmation, counter-screen for streptokinase expression inhibitor project, dose response (AID 1900); format: functional, organism-based
# Streptokinase A = target: T1, Streptokinase A (Streptococcus pyogenes serotype M1, UniProt P10520); experiment: viability-normalized secreted streptokinase activity reduction – plasminogen activation absorbance, OD405, dose response (AID 1914); format: functional, Streptococcus pyogenes M1 GAS;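 note: secreted streptokinase activity via plasminogen activation per viability signal from cell pellet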
# T1 sequence (P10520 whole entry): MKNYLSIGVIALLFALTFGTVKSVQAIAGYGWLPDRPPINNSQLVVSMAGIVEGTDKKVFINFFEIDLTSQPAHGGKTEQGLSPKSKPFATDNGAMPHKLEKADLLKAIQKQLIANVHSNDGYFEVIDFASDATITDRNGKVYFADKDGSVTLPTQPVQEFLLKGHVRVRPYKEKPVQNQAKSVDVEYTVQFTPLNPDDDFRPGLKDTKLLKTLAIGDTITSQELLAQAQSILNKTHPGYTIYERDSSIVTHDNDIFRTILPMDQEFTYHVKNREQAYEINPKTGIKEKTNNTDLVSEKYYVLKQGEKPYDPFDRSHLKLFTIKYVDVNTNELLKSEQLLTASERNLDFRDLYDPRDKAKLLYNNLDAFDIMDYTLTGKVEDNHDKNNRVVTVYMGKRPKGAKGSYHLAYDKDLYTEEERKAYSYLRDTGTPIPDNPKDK
# Streptococcus = experiment: GAS UMAA2166 growth inhibition – luminescence, BacTiterGlo, counter-screen for streptokinase expression inhibitor project, dose response (AID 1915); format: functional, organism-based; settings: read-out: EC50;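 note: potency for reduction of bacterial viability or growth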
# [5] = Luminescence Cell-Based Dose Retest to Confirm Inhibitors of Cancer Stem Cells. [Related pubchem assays (depositor defined):AID2717, AID2721]; format: functional; settings: Homo sapiens
# Cytochrome P450 1A2 = target: T2, Cytochrome P450 1A2 (Homo sapiens, UniProt P05177);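 note: PubChem cytochrome P450 panel assay, CYP1A2 panel member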
# T2 sequence (P05177 whole entry): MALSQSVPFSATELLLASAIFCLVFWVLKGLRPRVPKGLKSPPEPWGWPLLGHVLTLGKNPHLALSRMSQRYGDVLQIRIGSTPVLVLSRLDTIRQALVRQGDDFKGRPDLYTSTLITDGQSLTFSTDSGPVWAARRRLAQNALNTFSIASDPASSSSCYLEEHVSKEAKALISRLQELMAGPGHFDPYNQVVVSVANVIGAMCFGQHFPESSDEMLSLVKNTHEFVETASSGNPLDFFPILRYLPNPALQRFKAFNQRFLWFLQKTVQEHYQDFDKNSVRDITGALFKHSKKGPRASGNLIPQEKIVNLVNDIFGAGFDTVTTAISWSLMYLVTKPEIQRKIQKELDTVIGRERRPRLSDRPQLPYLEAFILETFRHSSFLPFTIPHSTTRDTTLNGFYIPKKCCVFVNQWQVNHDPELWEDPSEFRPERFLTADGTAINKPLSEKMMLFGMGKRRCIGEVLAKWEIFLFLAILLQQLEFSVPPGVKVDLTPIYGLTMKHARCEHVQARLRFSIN
# [6] = target: FAD-linked sulfhydryl oxidase ALR (Homo sapiens, UniProt P55789); experiment: ALR-catalysed DTT oxidation blockers – biochemical, H2O2 detection, luminescence, cherry-pick, dose response (AID 493248)
# Sequence of FAD-linked sulfhydryl oxidase ALR (P55789 whole entry): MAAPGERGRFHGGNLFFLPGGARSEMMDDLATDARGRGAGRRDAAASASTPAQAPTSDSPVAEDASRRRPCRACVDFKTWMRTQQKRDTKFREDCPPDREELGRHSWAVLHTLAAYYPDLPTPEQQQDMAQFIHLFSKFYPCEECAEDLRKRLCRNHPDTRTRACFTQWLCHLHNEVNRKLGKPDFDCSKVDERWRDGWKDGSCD
# Cytochrome P450 2C19 = Cytochrome P450 2C19 (Homo sapiens, UniProt P33261); experiment: Cytochrome panel assay with activity outcomes. Panel member name: p450-cyp2c19 Compounds with AC50 equal or less than 10 uM are considered active; format: functional; settings: read-out: AC50
# Sequence of Cytochrome P450 2C19 (P33261 whole entry): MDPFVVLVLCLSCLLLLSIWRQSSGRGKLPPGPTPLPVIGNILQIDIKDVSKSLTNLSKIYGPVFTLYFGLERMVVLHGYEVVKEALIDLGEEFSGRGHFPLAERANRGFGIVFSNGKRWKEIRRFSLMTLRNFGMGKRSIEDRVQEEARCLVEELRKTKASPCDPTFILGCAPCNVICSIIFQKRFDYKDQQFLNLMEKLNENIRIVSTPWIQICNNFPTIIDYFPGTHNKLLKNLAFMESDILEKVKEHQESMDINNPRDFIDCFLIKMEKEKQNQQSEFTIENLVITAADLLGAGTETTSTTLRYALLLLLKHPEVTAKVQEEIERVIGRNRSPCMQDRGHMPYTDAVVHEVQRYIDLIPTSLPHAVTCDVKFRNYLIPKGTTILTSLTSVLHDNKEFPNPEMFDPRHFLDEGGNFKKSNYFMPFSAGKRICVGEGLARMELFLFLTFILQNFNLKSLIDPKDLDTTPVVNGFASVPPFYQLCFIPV
# [7] = reduction of Shn3 3'UTR-driven luciferase in osteoblasts – cell-based, Clone20 osteoblasts, firefly luciferase, cherry-picked, dose response (AID 624132); format: functional;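 note: firefly luciferase luminescence from reporter carrying the Shn3 3'UTR in osteoblasts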
# [8] = non-specific 3'UTR reporter inhibition in Clone20-Shn3RL – cell-based, Renilla luciferase, cherry-picked, counter-screen for Shn3 inhibitor project, dose response (AID 624133); format: functional
# [9] = target: T3, Rac GTPase-activating protein 1 (Homo sapiens, UniProt Q9H0H5); experiment: blockers of MgcRacGAP-driven Rac1 GTP hydrolysis – biochemical, ADP Hunter fluorescence, primary and confirmatory, confirmation (AID 624330); format: functional
# T3 sequence (Q9H0H5 whole entry): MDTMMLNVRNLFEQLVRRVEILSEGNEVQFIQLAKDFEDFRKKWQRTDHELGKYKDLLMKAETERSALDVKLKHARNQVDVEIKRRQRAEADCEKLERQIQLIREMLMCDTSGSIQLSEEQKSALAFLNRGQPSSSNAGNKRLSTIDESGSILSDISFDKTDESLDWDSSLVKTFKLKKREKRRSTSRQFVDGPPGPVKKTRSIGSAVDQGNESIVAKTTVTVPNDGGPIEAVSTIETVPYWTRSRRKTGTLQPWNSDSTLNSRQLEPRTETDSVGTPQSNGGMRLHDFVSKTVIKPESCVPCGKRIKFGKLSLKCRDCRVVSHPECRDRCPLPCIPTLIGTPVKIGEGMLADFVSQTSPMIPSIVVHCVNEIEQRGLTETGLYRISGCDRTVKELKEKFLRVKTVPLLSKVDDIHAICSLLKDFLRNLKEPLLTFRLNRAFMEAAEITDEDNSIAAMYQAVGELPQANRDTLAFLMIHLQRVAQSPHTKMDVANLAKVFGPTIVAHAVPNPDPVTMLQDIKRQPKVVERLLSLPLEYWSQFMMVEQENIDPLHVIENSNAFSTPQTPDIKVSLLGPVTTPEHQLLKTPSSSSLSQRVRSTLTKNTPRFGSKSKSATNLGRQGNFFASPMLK
# [10] = Trypanosoma cruzi growth suppression in host cells – NIH3T3 host cells, beta-gal luminescence, confirmation (AID 2044); format: functional, cell-based;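 note: intracellular parasites grown in NIH/3T3 mouse fibroblasts as host cells; luminescent beta-galactosidase reporter signal from transgenic T. cruzi replicating inside host cells; inhibitors lower the luminescence signal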
# [11] = NIH3T3 cell viability loss – ATP luminescence, mouse fibroblasts, counter-screen, dose response (AID 2010); format: functional, cell-based;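 note: cells exposed to compound for about 90 hours before reading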
# Sequence of Cytochrome P450 2D6 (P10635 whole entry): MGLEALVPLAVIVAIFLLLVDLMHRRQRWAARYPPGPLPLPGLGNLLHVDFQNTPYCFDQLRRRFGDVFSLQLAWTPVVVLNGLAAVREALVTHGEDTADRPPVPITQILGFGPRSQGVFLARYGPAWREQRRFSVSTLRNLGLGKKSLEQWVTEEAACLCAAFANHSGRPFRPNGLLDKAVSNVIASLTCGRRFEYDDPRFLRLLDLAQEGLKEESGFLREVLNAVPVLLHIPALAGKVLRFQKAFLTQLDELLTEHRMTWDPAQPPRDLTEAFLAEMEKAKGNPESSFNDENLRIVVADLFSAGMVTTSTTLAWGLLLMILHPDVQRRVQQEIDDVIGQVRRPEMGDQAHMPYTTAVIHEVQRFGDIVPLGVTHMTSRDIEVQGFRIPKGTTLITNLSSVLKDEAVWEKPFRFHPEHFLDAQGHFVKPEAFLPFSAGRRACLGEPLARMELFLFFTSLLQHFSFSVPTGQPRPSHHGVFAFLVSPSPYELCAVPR
smiles,measurement,setting,value
CN1CCN(c2ncc3nc(-c4ccccc4)c(=O)n(CCc4ccccc4)c3n2)CC1,AC50,Cytochrome P450 2D6,39.8 µM (inconclusive)
COc1ccc(NC(=O)CNC(=O)Cn2c(C)cc3ccccc3c2=O)c(OC)c1,EC50,[1],> 120 µM (not active)
same,EC50,[2],> 120 µM (not active)
same,EC50,[3],> 120 µM (not active)
C[C@]1(CC(=O)O)O[C@H]2CCCCC[C@H]2O1.NCc1ccccc1,AC50,Cytochrome P450 2D6,3.16 µM (inconclusive)
same,AC50,Cytochrome P450 3A4,0.251 µM (inconclusive)
Oc1nc(CN2CC=C(c3ccccc3)CC2)nc2scc(-c3ccccc3)c12,EC50,[4],7.76 µM (active)
same,EC50,Streptokinase A,> 150 µM (not active)
same,EC50,Streptococcus,50.3 µM (active)
same,AC50,[5],2.56 µM (active)
O=C(NCCN1CCOCC1)c1csc2c1CCCCC2,AC50,Cytochrome P450 2D6,17.8 µM (inconclusive)
same,AC50,Cytochrome P450 1A2,20 µM (inconclusive)
CCS(=O)(=O)c1ccc2oc(Nc3cc(C)cc(C)c3)nc2c1,AC50,Cytochrome P450 2D6,25.1 µM (inconclusive)
same,AC50,Cytochrome P450 3A4,28.2 µM (inconclusive)
COC(=O)c1cccc(NC(=O)NC(=O)c2ccccc2Cl)c1,EC50,[1],2 µM (active)
same,EC50,[2],2.84 µM (active)
same,EC50,[3],7.75 µM (active)
COC(=O)c1c(NC(=O)COc2ccc(Cl)cc2Cl)sc2c1CC(C)(C)NC2(C)C,EC50,[1],8.93 µM (active)
same,EC50,[2],> 120 µM (not active)
same,EC50,[3],9.53 µM (active)
same,AC50,[5],5.58 µM (active)
Nc1ccc2nc(NC(=O)C3CCCCC3)sc2c1,AC50,[6],0.957 µM (active)
COc1ccc(OC)c(C(=O)N2CCC(n3nccc3NC(=O)CC(C)C)CC2)c1,EC50,[1],> 120 µM (not active)
same,EC50,[2],> 120 µM (not active)
same,EC50,[3],> 120 µM (not active)
CC(NC(=O)C(=O)N1CCCCC1)C(c1cccs1)N1CCN(c2ccc(F)cc2)CC1 (centres undefined),AC50,[6],1.44 µM (active)
Cc1ccccc1NS(=O)(=O)c1ccc2ncc(C(=O)NCCCN3CCOCC3)c(O)c2c1,AC50,Cytochrome P450 2C19,25.1 µM (inconclusive)
same,AC50,Cytochrome P450 2D6,20 µM (inconclusive)
same,AC50,Cytochrome P450 1A2,39.8 µM (inconclusive)
c1cc(CN2CCCC3(CCNCC3)C2)ccn1,AC50,Cytochrome P450 2C19,25.1 µM (inconclusive)
same,AC50,Cytochrome P450 2D6,25.1 µM (inconclusive)
O=C(C1CCC(=O)N1Cc1ccccc1Cl)N1CCN(c2cccc(Cl)c2)CC1 (centres undefined),AC50,Cytochrome P450 2D6,14.1 µM (inconclusive)
same,AC50,Cytochrome P450 3A4,0.0355 µM (inconclusive)
CC(=O)Nc1ccc(S(=O)(=O)N(Cc2cc3ccc(C)cc3nc2O)CC2CCCO2)cc1 (centres undefined),EC50,[1],16.8 µM (active)
same,EC50,[2],60.6 µM (active)
same,EC50,[3],11.8 µM (active)
Cc1[nH]c2ccc(C(=O)N3CCCCC3)cc2c1C,AC50,[6],2.77 µM (active)
CC(=O)N1CCC(=NNC(=O)c2cccs2)CC1,AC50,[6],13.5 µM (active)
CCN(Cc1ccncc1)C(=O)c1cc(Br)cc(Br)c1O,AC50,[6],1.25 µM (active)
COc1ccc2nc(S)[nH]c2c1,AC50,[6],0.581 µM (active)
COc1ccc(Oc2nccc(-c3ccc(F)cc3)c2C#N)cc1,AC50,Cytochrome P450 2D6,0.00562 µM (inconclusive)
same,AC50,Cytochrome P450 1A2,5.01 µM (inconclusive)
same,AC50,Cytochrome P450 3A4,12.6 µM (inconclusive)
Cc1cccc(C(=O)Nc2nnc(S(=O)(=O)N(C)Cc3ccco3)s2)c1,AC50,[6],9.45 µM (active)
CN1Cc2cc(C(=O)c3ccccc3O)cnc2NC1=O,AC50,[6],6.59 µM (active)
CCCCCn1c(SCCCC)nc2c1c(=O)[nH]c(=O)n2C,EC50,[1],17.1 µM (active)
same,EC50,[2],> 120 µM (not active)
same,EC50,[3],> 60 µM (not active)
CCOc1ccccc1NC(=O)CCn1cccc1,EC50,[1],> 120 µM (not active)
same,EC50,[2],> 120 µM (not active)
same,EC50,[3],> 120 µM (not active)
COC(=O)[C@@]1(Cc2ccc(OC)cc2)[C@H]2c3cc(C(=O)N(C)C)n(Cc4ccc(C)o4)c3C[C@H]2CN1C(=O)c1ccccc1,AC50,Cytochrome P450 2D6,39.8 µM (inconclusive)
COC(=O)Cc1csc(N/C=C2/C(=O)N(c3cccc(C(F)(F)F)c3)C(=O)c3ccccc32)n1,EC50,[1],> 120 µM (not active)
same,EC50,[2],> 120 µM (not active)
same,EC50,[3],11.3 µM (active)
Sc1nccc(-c2cccs2)n1,AC50,[6],0.664 µM (active)
O=C(Nc1cc(F)ccc1F)N1CCN(c2ccnc3cc(Cl)ccc23)CC1,AC50,[7],22.8 µM (active)
same,AC50,[8],10.2 µM (active)
CCN(CC)c1ccc(NC(=O)C2=CC=CN3CCS(=O)(=O)N=C23)cc1,AC50,[6],0.295 µM (active)
same,IC50,[9],67 µM (active)
Cn1cccc1C(=O)N1CCC2(CCCN(C(c3ccccc3)c3ccccc3)C2)CC1,AC50,Cytochrome P450 2C19,39.8 µM (inconclusive)
same,AC50,Cytochrome P450 2D6,10 µM (inconclusive)
same,AC50,Cytochrome P450 3A4,6.31 µM (inconclusive)
CN(C)C(=O)c1cn(N(C)c2ncc(C(F)(F)F)cc2Cl)c(=O)c2ccccc12,AC50,Cytochrome P450 2D6,25.1 µM (inconclusive)
same,AC50,Cytochrome P450 3A4,10 µM (inconclusive)
Cc1onc(-c2ccccc2)c1C(=O)NCCc1c[nH]c2ccccc12,AC50,Cytochrome P450 2D6,12.6 µM (inconclusive)
COc1cc(C(=O)OCC(=O)NC2CCCCCC2)ccc1OCC(C)C,AC50,[8],35.9 µM (active)
Cc1[nH]n(C(N)=S)c(=O)c1/N=N/c1ccc(Cl)cc1Cl,AC50,[6],0.674 µM (active)
Cc1c(Br)c(O)c(Br)c(O)c1/C=N/n1c(S)nnc1-c1ccccc1,AC50,[6],4.15 µM (active)
CN1CCN(/N=C/c2ccc(N(C)c3ccccc3)cc2)CC1,AC50,[6],1.9 µM (active)
COc1cc2c(cc1OC)C(c1ccc(Br)cc1)NCC2 (centres undefined),EC50,[1],> 120 µM (not active)
same,EC50,[2],> 120 µM (not active)
same,EC50,[3],> 120 µM (not active)
same,EC50,[10],> 60 µM (not active)
same,EC50,[11],> 60 µM (not active)
CC(C)n1cc(CN2CCCC(C(=O)Nc3cccc(-c4cc5ccccc5[nH]4)c3)C2)cn1 (centres undefined),EC50,[1],14.5 µM (active)
same,EC50,[2],> 120 µM (not active)
same,EC50,[3],30.6 µM (active)
CNC(C)(C)Cc1ccccc1 [MEPHENTERMINE],AC50,Cytochrome P450 2D6,10 µM (inconclusive)
